Patent US20100016574A1, “2'-Hydroxyl Group-Modified Ribonucleoside Derivatives” (Tokyo Institute of Technology, priority 2006, published 2010)
Blank lines part the entries; values can stand above or below the compound they belong to.

Assay: Stability / elimination of the 2′-modifying group with tetrabutylammonium fluoride (TLC analysis)
Type: physicochemical
Conditions: room temperature
Description: To the compound (4 mg, 0.01 mmol) synthesized in Example 8 were added 1M tetrabutylammonium fluoride/THF (1 mL), and the reaction was carried out at room temperature for 6 days. […] The compound was thus stable.
To the compound (4 mg, 0.01 mmol) synthesized in Example 5 was added 1 M tetrabutylammonium fluoride/THF (1 mL) for a reaction at room temperature for 10 minutes.
To the compound (6 mg, 0.01 mmol) synthesized in Example 16 was added 1 M tetrabutylammonium fluoride/THF (1 mL), followed by a reaction at room temperature for 2 hours.

Elimination of 2-methoxycarbonyl group with tetrabutylammonium fluoride (1 M tetrabutylammonium fluoride/THF, 10 minutes): Complete conversion to uridine
Structure (SMILES): COC(=O)CCO[C@@H]1[C@H](O)[C@@H](CO)O[C@H]1n1ccc(=O)[nH]c1=O [Example 5, 2′-O-[2-(Methoxycarbonyl)ethyl]uridine]

Stability of 2-(N-methylcarbamoyl)ethyl group to tetrabutylammonium fluoride (1M tetrabutylammonium fluoride/THF, 6 days): No degradation was observed
Structure (SMILES): CNC(=O)CCO[C@@H]1[C@H](O)[C@@H](COC(c2ccccc2)(c2ccc(OC)cc2)c2ccc(OC)cc2)O[C@H]1n1ccc(=O)[nH]c1=O [Example 8, 5′-O-(4,4′-Dimethoxytrityl)-2′-O-[2-(N-methylcarbamoyl)ethyl]uridine]

Structure (SMILES): COc1ccc(C(OC[C@H]2O[C@@H](n3ccc(=O)[nH]c3=O)[C@H](OCCC(=O)N(C)C)[C@@H]2O)(c2ccccc2)c2ccc(OC)cc2)cc1 [Example 16, 5′-O-(4,4′-Dimethoxytrityl)-2′-O-[2-(N,N-dimethylcarbamoyl)ethyl]uridine]
Elimination of 2-(N,N-dimethylcarbamoylethyl) group with tetrabutylammonium fluoride (1 M tetrabutylammonium fluoride/THF, 2 hours): Complete conversion to 5′-O-dimethoxytrityl uridine
